Organism: Rattus norvegicus
Experiment: DrugMatrix - Regimen: Daily Repeat
Type: toxicity, organism-based, Sprague-Dawley
Set-up: regimen Daily Repeat, gender Male, age 6-8 weeks
Conditions: in vivo, po, route oral GAVAGE, vehicle .5 % CMC; for BASOPHIL / EOSINOPHIL / ERYTHROCYTE COUNT / HEMATOCRIT / HEMOGLOBIN / LEUKOCYTE COUNT / LYMPHOCYTE / MEAN CORPUSCULAR HEMOGLOBIN / MEAN CORPUSCULAR HEMOGLOBIN CONCENTRATION / MEAN CORPUSCULAR VOLUME / MONOCYTE / NEUTROPHIL / PLATELET COUNT: tissue Blood; for ALANINE AMINOTRANSFERASE / ALBUMIN / ALKALINE PHOSPHATASE / ASPARTATE AMINOTRANSFERASE / BLOOD UREA NITROGEN / CHLORIDE / CHOLESTEROL / CREATINE PHOSPHOKINASE / CREATININE / GLUCOSE / PHOSPHORUS / POTASSIUM / SODIUM / TOTAL BILIRUBIN / TOTAL PROTEIN: tissue Plasma
[1] = 0 mg/kg, 72 h, dose level Control, time 3 day
[2] = 0 mg/kg, 120 h, dose level Control, time 5 day
[3] = 300 mg/kg, 72 h, dose level Low, time 3 day

With O=C1CCc2cc(OCCCCc3nnnn3C3CCCCC3)ccc2N1 [CILOSTAZOL] as the molecule, how does the BASOPHIL [1] read?
Its BASOPHIL is 0.68%.

What about the EOSINOPHIL [1] of the same molecule?
The EOSINOPHIL was 0.46%.

And the “ERYTHROCYTE COUNT” value [1]?
The value was 7.15 x10E6/uL.

What about the HEMATOCRIT [1] of the same molecule?
The HEMATOCRIT was 45.44%.

And the HEMOGLOBIN [1]?
Its HEMOGLOBIN is 14.1 G/DL.

And the “LEUKOCYTE COUNT” value [1]?
The value was 9.78 x10E3/uL.

And the LYMPHOCYTE [1]?
The LYMPHOCYTE was 84.44%.

What about the “MEAN CORPUSCULAR HEMOGLOBIN” value [1] of the same molecule?
Its value is 19.72 pg.

And the “MEAN CORPUSCULAR HEMOGLOBIN CONCENTRATION” value [1]?
The value was 31 G/DL.

What about the “MEAN CORPUSCULAR VOLUME” value [1] of the same molecule?
Its value is 63.66 fL.

What about the MONOCYTE [1] of the same molecule?
Its MONOCYTE is 2.14%.

And the NEUTROPHIL [1]?
The NEUTROPHIL was 11.16%.

What about the “PLATELET COUNT” value [1] of the same molecule?
The value was 1378.2 x10E3/uL.

And the “ALANINE AMINOTRANSFERASE” value [1]?
The value was 42.33 u/L.

And the ALBUMIN [1]?
Its ALBUMIN is 3.8 G/DL.

And the “ALKALINE PHOSPHATASE” value [1]?
The value was 388.17 u/L.

And the “ASPARTATE AMINOTRANSFERASE” value [1]?
The value was 68 u/L.

What about the “BLOOD UREA NITROGEN” value [1] of the same molecule?
The value was 16.17 mg/dL.

What about the CHLORIDE [1] of the same molecule?
Its CHLORIDE is 96.67 MEQ/L.

And the CHOLESTEROL [1]?
Its CHOLESTEROL is 71 mg/dL.

What about the “CREATINE PHOSPHOKINASE” value [1] of the same molecule?
Its value is 156.17 u/L.

What about the CREATININE [1] of the same molecule?
The CREATININE was 0.57 mg/dL.

What about the GLUCOSE [1] of the same molecule?
The GLUCOSE was 193.67 mg/dL.

What about the PHOSPHORUS [1] of the same molecule?
Its PHOSPHORUS is 11.43 mg/dL.

What about the POTASSIUM [1] of the same molecule?
The POTASSIUM was 7 MEQ/L.

What about the SODIUM [1] of the same molecule?
The SODIUM was 140.33 MEQ/L.

And the “TOTAL BILIRUBIN” value [1]?
Its value is 0.48 mg/dL.

What about the “TOTAL PROTEIN” value [1] of the same molecule?
The value was 6.8 G/DL.

What about the BASOPHIL [2] of the same molecule?
The BASOPHIL was 1.47%.

And the EOSINOPHIL [2]?
Its EOSINOPHIL is 1%.

And the “ERYTHROCYTE COUNT” value [2]?
Its value is 7.12 x10E6/uL.

And the HEMATOCRIT [2]?
The HEMATOCRIT was 45.47%.

And the HEMOGLOBIN [2]?
Its HEMOGLOBIN is 14.1 G/DL.

And the “LEUKOCYTE COUNT” value [2]?
The value was 11.38 x10E3/uL.

What about the LYMPHOCYTE [2] of the same molecule?
Its LYMPHOCYTE is 82.57%.

And the “MEAN CORPUSCULAR HEMOGLOBIN” value [2]?
The value was 19.82 pg.

And the “MEAN CORPUSCULAR HEMOGLOBIN CONCENTRATION” value [2]?
Its value is 31.02 G/DL.

What about the “MEAN CORPUSCULAR VOLUME” value [2] of the same molecule?
Its value is 63.88 fL.

And the MONOCYTE [2]?
The MONOCYTE was 2.2%.

What about the NEUTROPHIL [2] of the same molecule?
Its NEUTROPHIL is 11.97%.

And the “PLATELET COUNT” value [2]?
Its value is 1267 x10E3/uL.

What about the “ALANINE AMINOTRANSFERASE” value [2] of the same molecule?
Its value is 38 u/L.

What about the ALBUMIN [2] of the same molecule?
The ALBUMIN was 3.72 G/DL.

And the “ALKALINE PHOSPHATASE” value [2]?
The value was 391 u/L.

What about the “ASPARTATE AMINOTRANSFERASE” value [2] of the same molecule?
The value was 65.83 u/L.

What about the “BLOOD UREA NITROGEN” value [2] of the same molecule?
The value was 14.17 mg/dL.

What about the CHLORIDE [2] of the same molecule?
The CHLORIDE was 107.67 MEQ/L.

And the CHOLESTEROL [2]?
The CHOLESTEROL was 61 mg/dL.

And the “CREATINE PHOSPHOKINASE” value [2]?
The value was 148.33 u/L.

What about the CREATININE [2] of the same molecule?
Its CREATININE is 0.57 mg/dL.

What about the GLUCOSE [2] of the same molecule?
The GLUCOSE was 177.17 mg/dL.

And the PHOSPHORUS [2]?
The PHOSPHORUS was 12.07 mg/dL.

And the POTASSIUM [2]?
Its POTASSIUM is 7.2 MEQ/L.

What about the SODIUM [2] of the same molecule?
Its SODIUM is 151.5 MEQ/L.

What about the “TOTAL BILIRUBIN” value [2] of the same molecule?
The value was 0.58 mg/dL.

What about the “TOTAL PROTEIN” value [2] of the same molecule?
The value was 6.72 G/DL.

What about the BASOPHIL [3] of the same molecule?
The BASOPHIL was 0.4%.

And the EOSINOPHIL [3]?
The EOSINOPHIL was 0.5%.

What about the “ERYTHROCYTE COUNT” value [3] of the same molecule?
The value was 6.67 x10E6/uL.

What about the HEMATOCRIT [3] of the same molecule?
The HEMATOCRIT was 43%.

What about the HEMOGLOBIN [3] of the same molecule?
The HEMOGLOBIN was 13.6 G/DL.

What about the “LEUKOCYTE COUNT” value [3] of the same molecule?
The value was 12.31 x10E3/uL.

And the LYMPHOCYTE [3]?
Its LYMPHOCYTE is 81.4%.

And the “MEAN CORPUSCULAR HEMOGLOBIN” value [3]?
Its value is 20.4 pg.

What about the “MEAN CORPUSCULAR HEMOGLOBIN CONCENTRATION” value [3] of the same molecule?
The value was 31.6 G/DL.

What about the “MEAN CORPUSCULAR VOLUME” value [3] of the same molecule?
The value was 64.55 fL.

What about the MONOCYTE [3] of the same molecule?
Its MONOCYTE is 2.4%.

What about the NEUTROPHIL [3] of the same molecule?
The NEUTROPHIL was 14%.

What about the “PLATELET COUNT” value [3] of the same molecule?
Its value is 1378 x10E3/uL.

What about the “ALANINE AMINOTRANSFERASE” value [3] of the same molecule?
Its value is 40.67 u/L.

And the ALBUMIN [3]?
The ALBUMIN was 3.6 G/DL.

And the “ALKALINE PHOSPHATASE” value [3]?
Its value is 331.33 u/L.

What about the “ASPARTATE AMINOTRANSFERASE” value [3] of the same molecule?
Its value is 59 u/L.

What about the “BLOOD UREA NITROGEN” value [3] of the same molecule?
The value was 14.67 mg/dL.

And the CHLORIDE [3]?
Its CHLORIDE is 96 MEQ/L.

What about the CHOLESTEROL [3] of the same molecule?
The CHOLESTEROL was 75.33 mg/dL.

And the “CREATINE PHOSPHOKINASE” value [3]?
The value was 120.33 u/L.

What about the CREATININE [3] of the same molecule?
Its CREATININE is 0.53 mg/dL.

And the GLUCOSE [3]?
The GLUCOSE was 178.33 mg/dL.

What about the PHOSPHORUS [3] of the same molecule?
The PHOSPHORUS was 11.33 mg/dL.

What about the POTASSIUM [3] of the same molecule?
The POTASSIUM was 6.4 MEQ/L.

And the SODIUM [3]?
The SODIUM was 141 MEQ/L.

And the “TOTAL BILIRUBIN” value [3]?
The value was 0.33 mg/dL.

And the “TOTAL PROTEIN” value [3]?
The value was 6.43 G/DL.

— ChEMBL document CHEMBL3885881, “DrugMatrix”
